According to ChEMBL document CHEMBL1144583, “Specificities of acetoxy derivatives of coumarins, biscoumarins, chromones, flavones, isoflavones and xanthones for acetoxy drug: protein transacetylase” (2007):

What was measured:
Rattus norvegicus [1] = species: Rattus norvegicus; assay: Effect on TAase activity assessed as inhibition of GST in liver microsome at 50 uM; format: microsomes
Rattus norvegicus [2] = species: Rattus norvegicus; assay: Effect on TAase activity assessed as activation of liver microsomal NADPH cytochrome P450 at 5 uM
Rattus norvegicus [3] = species: Rattus norvegicus; assay: Inhibition of liver microsomal EROD at 25 uM
Bone marrow cell = assay: Inhibition of micronuclei formation in benzene-induced in Wistar Albino rat bone marrow cells at 300 mg/ kg, ip after 1 hr; format: functional; conditions: route intraperitoneal

SMILES | inhibition (Rattus norvegicus [1]) [%] | Activity (Rattus norvegicus [2]) [%] | inhibition (Rattus norvegicus [3]) [%] | inhibition in vivo at 300 mg/kg (Bone marrow cell) [%]
CC(=O)Oc1ccc2c(=O)c(C(C)=O)c(C)oc2c1OC(C)=O | 15.3 | 27.6 | – | –
CC(=O)Oc1ccc2c(=O)c(-c3ccccc3)coc2c1OC(C)=O | 6.89 | 14.5 | 32.4 | –
CC(=O)Oc1ccc2c(=O)c(C(C)=O)c(C)oc2c1 | 6.03 | 15.1 | 31.5 | –
CC(=O)Oc1ccc2c(=O)cc(-c3ccccc3)oc2c1 | 3.6 | 6.9 | 16.4 | –
CC(=O)Oc1ccc2c(C)cc(=O)oc2c1 | 7.1 | 14.5 | 30.8 | 44.6
CC(=O)Oc1cc(OC(C)=O)c2c(=O)c(C(C)=O)c(C)oc2c1 | 6.68 | 16.7 | – | –
CC(=O)Oc1ccc(OC(C)=O)c2c(=O)c3ccccc3oc12 | 12.7 | 21.7 | 41.9 | –
CCCCCCC(c1cc(=O)oc2cc(OC(C)=O)ccc12)S(=O)(=O)c1ccccc1 (stereo unspecified) | 3.96 | 7.17 | – | –
CC(=O)Oc1cc(C(C)=O)c2c(C)cc(=O)oc2c1 | 7.65 | 15.6 | – | –
CC(=O)Oc1ccc2c(c1)OC(=O)CC2c1ccccc1 (stereo unspecified) | 3.31 | 6.77 | – | –
CC(=O)Oc1ccc2c(=O)c(-c3ccccc3)c(C)oc2c1 | 3.1 | 7.1 | 16.1 | –
CC(=O)Oc1cc2c(=O)oc3c(OC(C)=O)c(OC(C)=O)cc4c(=O)oc(c1OC(C)=O)c2c34 [ELLAGIC ACID TETRAACETATE] | 10.1 | 16.1 | – | 39.6

Second part, led by results:

inhibition (Rattus norvegicus [1]) [%] | Activity (Rattus norvegicus [2]) [%] | inhibition (Rattus norvegicus [3]) [%] | SMILES | inhibition in vivo at 300 mg/kg (Bone marrow cell) [%]
4.01 | 7.6 | – | CC(=O)Oc1ccc2c(C(C/C=C/C#CC(C)(C)C)S(=O)(=O)c3ccccc3)cc(=O)oc2c1 (stereo unspecified) | –
3.43 | 5.06 | – | CC(=O)Oc1cccc2oc3ccccc3c(=O)c12 | –
15.2 | 25.8 | 58.4 | CC(=O)Oc1ccc2c(C)cc(=O)oc2c1OC(C)=O | 65
10.4 | 15.9 | – | CC(=O)Oc1ccc2c(C(C/C=C/C#CC(C)(C)C)S(=O)(=O)c3ccccc3)cc(=O)oc2c1OC(C)=O (stereo unspecified) | –
10.1 | 17.2 | 39.3 | CC(=O)Oc1ccc2c(OC(C)=O)c(Cc3c(OC(C)=O)c4ccc(OC(C)=O)c(OC(C)=O)c4oc3=O)c(=O)oc2c1OC(C)=O | 37.9
